Where two headings read alike, the source gives them in different places.
Key:
[1] = Plasma PK from oral tick and flea efficacy studies of the C1 racemate; format: in vivo, Mongrel dogs; conditions: for Cmax / AUC(0-t) / AUC(0-inf) / half-life / CL/F / Tmax: mongrel, dog, po; for Cmax / AUC(0-t) / AUC(0-inf) / half-life / CL/F / Tmax / tlast: plasma; for AUC(0-t): read-out: NCA AUC0-last
From the text: However, the S- enantiomer plasma PK curves and calculated PK parameters conducted in beagle dogs differed from oral efficacy studies conducted on the racemate dosed in mongrels.
Pharmacokinetic results from the compound C1 (S) enantiomer PK study differed from racemic efficacy studies. Average plasma pharmacokinetic parameters from the compound C1 (S) enantiomer PK study described in this document are compared to those from oral efficacy studies of the racemate in Table 6.

Aedes aegypti = assay: In vitro ingestion activity against adult mosquitoes (artificial feeding, bovine blood); conditions: read-out: Mortality % R1 + R2
Method: Aedes aegypti (Louisiana Biologicals Inc., New Orleans, La.) eggs were allowed to hatch, close, and age between 3-5 days in an environmental chamber at 26° C., 80% humidity with light/dark cycles.
For mosquito ingestion tests, serial dilutions of the compound stock were performed using DMSO to achieve the desired range for EC50 and EC90 determination. An aliquot of each compound dilution was added to organic bovine blood with a final DMSO concentration of 0.5% and placed in a temperature-controlled artificial feeding container.
Compounds tested were: the C1 racemate, C1 (R) enantiomer, and the C1 (S) enantiomer. For Trial 3, the C1 (R) enantiomer and the C1 (S) enantiomer were further chiral purified to achieve >99% purity.
For both contact and ingestion assays, five female Aedes aegypti adults were added to each vial or cage. The test vials for contact assays were held in an environmental chamber at 24° C., 80% humidity with light/dark cycles (12 hours each). The cages for mosquito ingestion assays were held in a temperature-controlled artificial feeding apparatus to allow continual access to organic bovine blood containing the desired concentration of compound. Fresh aliquots of compound-spiked bovine blood were provided daily for the duration of the study.
Assessment of mortality/knockdown was performed at various time points between 30 minutes and 24 hours post infestation. Mosquitoes showing no movement or mosquitoes that were knocked down were noted as dead. Results from trial 1 and trial 2 contact assays are shown in Tables 12 and 13, respectively and the results from trial 3 mosquito ingestion assay is shown in table 14.
For the mosquito contact and ingestion assays, each replicate contained 5 mosquitoes. For ease of calculation, the two replicates were added to equal a total of 10 mosquitoes.

[2] = test system: Ctenocephalides felis (flea), Ixodidae (tick), and Aedes aegypti (mosquito); assay: Bio-profiling of C1 racemate and enantiomers, overall conclusions of contact and ingestion assays; conditions: for potency against ticks: adult ticks, contact assays
From the text: 1-[6-[5-(3,5-dichloro-4-fluoro-phenyl)-5-(trifluoromethyl)-4H-isothiazol-3-yl]spiro[1H-isobenzofuran-3,3′-azetidine]-1′-yl]-3,3,3-trifluoro-propan-1-one (referred to herein as C1 racemate) is an isothiazoline compound consisting of two isomers: (R)-1-[6-[5-(3,5-dichloro-4-fluoro-phenyl)-5-(trifluoromethyl)-4H-isothiazol-3-yl]spiro[1H-isobenzofuran-3,3′-azetidine]-1′-yl]-3,3,3-trifluoro-propan-1-one (referred herein as C1 (R) enantiomer) and (S)-1-[6-[5-(3,5-dichloro-4-fluoro-phenyl)-5-(trifluoromethyl)-4H-isothiazol-3-yl]spiro[1H-isobenzofuran-3,3′-azetidine]-1′-yl]-3,3,3-trifluoro-propan-1-one (referred to herein as C1 (S) enantiomer). The racemic compound and the two enantiomers were tested against adult stages of Ctenocephalides felis (flea) Ixodidae (tick), and Aedes aegypti (mosquito). The compounds were solubilized in DMSO or an acetone/triton solution and dose response curves were generated for the individual compounds.
For evaluation of contact activity, coated-substrate (flea) and coated-vial (tick and mosquito) assay procedures were used. For evaluation of flea ingestion activity, an artificial feeding assay procedure was used. Insecticidal activity was evaluated at various time-points for each assay. Dose response curves were generated in duplicate on three independent test occasions (Trial 1-Trial 3) and EC50 and EC90 values were calculated.
Therefore, mortality correction was not performed in the assays. Calculation of EC50 and EC90 values was performed using XLfit. Both EC50 and EC90 values were calculated using the average of the two replicates for each Trial.
The C1 (R) enantiomer, C1 (S) enantiomer, and the C1 racemate were successfully evaluated against flea, tick, and mosquito contact and ingestion in vitro screening assays.

[3] = 10 mg/kg, Flea Efficacy study, oral 10 mg/kg
[4] = 10 mg/kg, Tick Efficacy study, oral 10 mg/kg
[5] = 20 mg/kg, Flea Efficacy study, oral 20 mg/kg
[6] = 20 mg/kg, Tick Efficacy study, oral 20 mg/kg

## O=C(CC(F)(F)F)N1CC2(C1)OCc1cc(C3=NSC(c4cc(Cl)c(F)c(Cl)c4)(C(F)(F)F)C3)ccc12 (racemic) [C1 racemate, 1-[6-[5-(3,5-dichloro-4-fluoro-phenyl)-5-(trifluoromethyl)-4H-isothiazol-3-yl]spiro[1H-isobenzofuran-3,3′-azetidine]-1′-yl]-3,3,3-trifluoro-propan-1-one]
[1]; dogs, oral
  absorption and elimination in dogs: well-absorbed compound with an extended elimination half-life in dogs
[1]; 10 mg/kg, Mongrel, Flea Efficacy study, oral 10 mg/kg, read-out: Cmax
  Cmax: 3470 ng/mL
[1]; 10 mg/kg, Mongrel, Flea Efficacy study, oral 10 mg/kg
  AUC(0-t): 266 µg·h/mL
[1]; 10 mg/kg, Mongrel, Flea Efficacy study, oral 10 mg/kg, read-out: NCA AUC0-∞
  AUC(0-inf): 361 µg·h/mL
[1]; 10 mg/kg, Mongrel, Flea Efficacy study, oral 10 mg/kg, read-out: t1/2 (converted)
  half-life: 23.8 days
[1]; 10 mg/kg, Mongrel, Tick Efficacy study, oral 10 mg/kg, read-out: Cmax
  Cmax: 3780 ng/mL
[1]; 10 mg/kg, Mongrel, Tick Efficacy study, oral 10 mg/kg
  AUC(0-t): 344 µg·h/mL
[1]; 10 mg/kg, Mongrel, Tick Efficacy study, oral 10 mg/kg, read-out: NCA AUC0-∞
  AUC(0-inf): 395 µg·h/mL
[1]; 10 mg/kg, Mongrel, Tick Efficacy study, oral 10 mg/kg, read-out: t1/2 (converted)
  half-life: 16.4 days
[1]; 10 mg/kg, range over racemate efficacy studies, at 10 mg/kg, read-out: plasma area under the curve extrapolated to infinity (AUC0-∞)
  AUC(0-inf): 361 to 395 µg·h/mL
[1]; 10 mg/kg, range over racemate efficacy studies, dosed at 10 mg/kg, read-out: plasma Cmax
  Cmax: 3470 to 3780 ng/mL
[1]; [3]
  CL/F: 0.643 mL/min/kg
  Tmax: 0.0417 days
[1]; [4]
  CL/F: 0.502 mL/min/kg
  Tmax: 0.125 days
[1]; 20 mg/kg, Mongrel, Flea Efficacy study, oral 20 mg/kg, read-out: Cmax
  Cmax: 4740 ng/mL
[1]; 20 mg/kg, Mongrel, Flea Efficacy study, oral 20 mg/kg
  AUC(0-t): 463 µg·h/mL
[1]; 20 mg/kg, Mongrel, Flea Efficacy study, oral 20 mg/kg, read-out: NCA AUC0-∞
  AUC(0-inf): 525 µg·h/mL
[1]; 20 mg/kg, Mongrel, Flea Efficacy study, oral 20 mg/kg, read-out: t1/2 (converted)
  half-life: 14.9 days
[1]; 20 mg/kg, Mongrel, Tick Efficacy study, oral 20 mg/kg, read-out: Cmax
  Cmax: 6240 ng/mL
[1]; 20 mg/kg, Mongrel, Tick Efficacy study, oral 20 mg/kg
  AUC(0-t): 494 µg·h/mL
[1]; 20 mg/kg, Mongrel, Tick Efficacy study, oral 20 mg/kg, read-out: NCA AUC0-∞
  AUC(0-inf): 674 µg·h/mL
[1]; 20 mg/kg, Mongrel, Tick Efficacy study, oral 20 mg/kg, read-out: t1/2 (converted)
  half-life: 23.8 days
[1]; [5]
  CL/F: 0.737 mL/min/kg
  Tmax: 0.0417 days
[1]; [6]
  CL/F: 0.693 mL/min/kg
  Tmax: 0.0833 days
[1]; range over racemate efficacy studies, read-out: half-life
  half-life: 14.9 to 23.8 days
[1]; range over racemate efficacy studies
  CL/F: 0.5 to 0.733 mL/min/kg
[1]; Mongrel, Flea Efficacy study, oral 10 mg/kg
  tlast: 1032 h
[1]; Mongrel, Flea Efficacy study, oral 20 mg/kg
  tlast: 1032 h
[1]; Mongrel, Tick Efficacy study, oral 10 mg/kg
  tlast: 1056 h
[1]; Mongrel, Tick Efficacy study, oral 20 mg/kg
  tlast: 1056 h
Aedes aegypti; 24 h
  mortality at 0.049 ppm: 71.4%
  mortality at 0.2 ppm: 100%
  mortality at 0.78 ppm: 100%
  mortality at 3.125 ppm: 100%
  mortality at 12.5 ppm: 100%
  mortality at 50 ppm: 100%
Aedes aegypti
  mortality at 0.049 ppm: 0%
  mortality at 0.2 ppm: 0%
  mortality at 0.78 ppm: 50%
  mortality at 3.125 ppm: 100%
  mortality at 12.5 ppm: 100%
  mortality at 50 ppm: 100%
[2]
  potency against ticks: excellent potency against ticks

## O=C(CC(F)(F)F)N1CC2(C1)OCc1cc(C3=NS[C@](c4cc(Cl)c(F)c(Cl)c4)(C(F)(F)F)C3)ccc12 [C1 (R) enantiomer, (R)-1-[6-[5-(3,5-dichloro-4-fluoro-phenyl)-5-(trifluoromethyl)-4H-isothiazol-3-yl]spiro[1H-isobenzofuran-3,3′-azetidine]-1′-yl]-3,3,3-trifluoro-propan-1-one]
Aedes aegypti; 24 h
  mortality at 0.049 ppm: 40%
  mortality at 0.2 ppm: 30%
  mortality at 0.78 ppm: 75%
  mortality at 3.125 ppm: 100%
  mortality at 12.5 ppm: 100%
  mortality at 50 ppm: 100%
Aedes aegypti
  mortality at 0.049 ppm: 10%
  mortality at 0.2 ppm: 10%
  mortality at 0.78 ppm: 0%
  mortality at 3.125 ppm: 11.1%
  mortality at 12.5 ppm: 100%
  mortality at 50 ppm: 88.9%

## O=C(CC(F)(F)F)N1CC2(C1)OCc1cc(C3=NS[C@@](c4cc(Cl)c(F)c(Cl)c4)(C(F)(F)F)C3)ccc12 [C1 (S) enantiomer, (S)-1-[6-[5-(3,5-dichloro-4-fluoro-phenyl)-5-(trifluoromethyl)-4H-isothiazol-3-yl]spiro[1H-isobenzofuran-3,3′-azetidine]-1′-yl]-3,3,3-trifluoro-propan-1-one]
Aedes aegypti; 24 h
  mortality at 0.049 ppm: 70%
  mortality at 0.2 ppm: 100%
  mortality at 0.78 ppm: 100%
  mortality at 3.125 ppm: 100%
  mortality at 12.5 ppm: 100%
  mortality at 50 ppm: 100%
Aedes aegypti
  mortality at 0.049 ppm: 0%
  mortality at 0.2 ppm: 44.4%
  mortality at 0.78 ppm: 100%
  mortality at 3.125 ppm: 100%
  mortality at 12.5 ppm: 100%
  mortality at 50 ppm: 100%
[2]
  potency against ticks: excellent potency against ticks
[2]; flea, tick and mosquito contact and ingestion assays, Trials 1-3
  which enantiomer carries the biological activity of the C1 racemate: primarily be associated with the C1 (S) enantiomer

— patent US10807992B2, “Single enantiomer antiparasitic compounds” (priority 2017, dated 2020)
